# Values of other authors, collected in patent US20070111204A1, “Methods for detecting nucleic acid variations” (priority 2003, published 2007).
# Test system: CGRP
# Conditions: marmoset, electrical stimulation of the trigeminal ganglion (Doods et al. 2000)
compound,measurement,value
NCCCC[C@H](NC(=O)[C@@H](Cc1cc(Br)c(O)c(Br)c1)NC(=O)N1CCC(N2Cc3ccccc3NC2=O)CC1)C(=O)N1CCN(c2ccncc2)CC1 [BIBN4096BS],effect on increase of facial blood flow,blocked
